Data published in ChEMBL document CHEMBL1649219, “Imidocarb dipropionate clears persistent Babesia caballi infection with elimination of transmission potential” (Antimicrob Agents Chemother, 2009).
Calls of active or inactive are those of the source.

Legend:
Format in all cases: functional, organism-based
Parameters in all cases: dose 4 mg/kg
Babesia caballi [1] = assay: Antiparasitic activity against Babesia caballi receiving ticks from 4 times 4 mg/kg, im compound treated donor horse infected with Babesia caballi assessed as reduction in parasite specific antibodies measured after 100 days post-parasite transmission by C-ELISA
Babesia caballi [2] = assay: Antiparasitic activity against Babesia caballi receiving blood from 4 times 4 mg/kg, im compound treated donor horse infected with Babesia caballi assessed as reduction in parasite level measured after 100 days post-parasite transmission by nested PCR
Babesia caballi [3] = assay: Antiparasitic activity against Babesia caballi infected in horse assessed as reduction in parasite specific antibodies at 4 mg/kg, im dosed 4 times at 72 hrs intervals administered 70 days postinfection measured 222 days post dose by immunoblot
Babesia caballi [4] = assay: Antiparasitic activity against Babesia caballi receiving ticks from 4 times 4 mg/kg, im compound treated donor horse infected with Babesia caballi assessed as reduction in parasite level measured after 100 days post-parasite transmission by nested PCR
Babesia caballi [5] = assay: Antiparasitic activity against Babesia caballi receiving blood from 4 times 4 mg/kg, im compound treated donor horse infected with Babesia caballi assessed as reduction in parasite specific antibodies measured after 100 days post-parasite transmission by C-ELISA
Babesia caballi [6] = assay: Antiparasitic activity against Babesia caballi infected in horse assessed as reduction in parasite level at 4 mg/kg, im dosed 4 times at 72 hrs intervals administered 70 days postinfection and measured 5 days post last dose by nested PCR
Babesia caballi [7] = assay: Antiparasitic activity against Babesia caballi infected in horse assessed as reduction in parasite level at 4 mg/kg, im dosed 4 times at 72 hrs intervals administered 70 days postinfection and measured 5 days post last dose by quantitative PCR
Babesia caballi [8] = assay: Antiparasitic activity against Babesia caballi infected in horse assessed as reduction in parasite specific antibodies at 4 mg/kg, im dosed 4 times at 72 hrs intervals administered 70 days postinfection measured 201 days post dose by C-ELISA
Babesia caballi [9] = assay: Antiparasitic activity against Babesia caballi infected in horse assessed as reduction in parasite specific antibodies at 4 mg/kg, im dosed 4 times at 72 hrs intervals administered 70 days postinfection measured 56 days post dose by complement fixation assay

Measured: Activity

O=C(Nc1cccc(C2=NCCN2)c1)Nc1cccc(C2=NCCN2)c1
active: all assays above
